Experimental data taken from PubChem BioAssay AID1963870 (Molecular Pharmacology Branch, DTP, NCI, 2024).
pIC50: −log10 of the molar value. The source made the active and inactive calls. The calls were made as follows: active = viability on the fitted dose curve at most 10% of control; inactive = the rest.

System: 292921-168-R-J2-PDC KRAS tumor spheroid viability
Experiment: Anticancer human tumor 292921-168-R-J2-PDC patient-derived pancreatic carcinoma cell line growth inhibition [KRAS2]
Conditions: spheroids with HUVEC and MSC; for pIC50: curve of first compound; for viability, T/C: stronger effect = lower value
Method in brief: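 KRAS-mutant tumor cells were grown as spheroids with HUVEC endothelial cells and human MSCs as stroma. Targeted agents were tested alone and with KRAS pathway inhibitors. Doses started at or near clinical Cmax, or 10 microM, descending half-log.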

[1] = second compound 0.1 µM, first compound 0.01 µM
[2] = second compound 0.1 µM, first compound 0.0316 µM
[3] = second compound 0.1 µM, first compound 0.1 µM
[4] = second compound 0.316 µM, first compound 0.01 µM
[5] = second compound 0.316 µM, first compound 0.0316 µM
[6] = second compound 0.316 µM, first compound 0.1 µM
[7] = second compound 1 µM, first compound 0.01 µM
[8] = second compound 1 µM, first compound 0.0316 µM
[9] = second compound 1 µM, first compound 0.1 µM
[10] = second compound 3.16 µM, first compound 0.01 µM
[11] = second compound 3.16 µM, first compound 0.0316 µM
[12] = second compound 3.16 µM, first compound 0.1 µM
[13] = second compound 10 µM, first compound 0.01 µM
[14] = second compound 10 µM, first compound 0.0316 µM
[15] = second compound 10 µM, first compound 0.1 µM
[16] = second compound 0.1 µM, first compound 0.316 µM
[17] = second compound 0.1 µM, first compound 1 µM
[18] = second compound 0.1 µM, first compound 3.16 µM
[19] = second compound 0.316 µM, first compound 0.316 µM
[20] = second compound 0.316 µM, first compound 1 µM
[21] = second compound 0.316 µM, first compound 3.16 µM
[22] = second compound 1 µM, first compound 0.316 µM
[23] = second compound 1 µM, first compound 1 µM
[24] = second compound 1 µM, first compound 3.16 µM
[25] = second compound 3.16 µM, first compound 0.316 µM
[26] = second compound 3.16 µM, first compound 1 µM
[27] = second compound 3.16 µM, first compound 3.16 µM
[28] = second compound 10 µM, first compound 0.316 µM
[29] = second compound 10 µM, first compound 1 µM
[30] = second compound 10 µM, first compound 3.16 µM
[31] = second compound 0.1 µM, first compound 10 µM
[32] = second compound 0.316 µM, first compound 10 µM
[33] = second compound 1 µM, first compound 10 µM
[34] = second compound 3.16 µM, first compound 10 µM
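For pIC50 in this document: drug exposure lasted seven days after spheroids formed for three days.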
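For viability, T/C in this document: drug exposure lasted seven days after spheroids formed for three days; percent of DMSO vehicle control viability which is 100%.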

SMILES	pIC50 (second compound 0.1 µM)	pIC50 (second compound 0.316 µM)	pIC50 (second compound 1 µM)	pIC50 (second compound 3.16 µM)	pIC50 (second compound 10 µM)	viability, T/C [2] [%]	viability, T/C [3] [%]	viability, T/C [5] [%]	viability, T/C [6] [%]	viability, T/C [8] [%]	viability, T/C [9] [%]	viability, T/C [11] [%]	viability, T/C [12] [%]	viability, T/C [14] [%]	viability, T/C [15] [%]	viability, T/C [16] [%]	viability, T/C [17] [%]	viability, T/C [18] [%]	viability, T/C [19] [%]	viability, T/C [20] [%]	also measured
Cn1ncnc1[C@H]1c2n[nH]c(=O)c3cc(F)cc(c23)N[C@@H]1c1ccc(F)cc1 + C=CC(=O)N1CCN(c2nc(=O)n(-c3c(C)ccnc3C(C)C)c3nc(-c4c(O)cccc4F)c(F)cc23)C(C)C1	< 7.00	< 7.00	< 7.00	7.05	> 9.50	87.5	78.5	97.7	88.4	83.2	73.3	54.3	49.2	21.3	18.6						viability, T/C (second compound 0.1 µM, first compound 0.000316 µM): 103%; viability, T/C (second compound 0.1 µM, first compound 0.001 µM): 104%; viability, T/C (second compound 0.1 µM, first compound 0.00316 µM): 105%; viability, T/C [1]: 103%; viability, T/C (second compound 0.316 µM, first compound 0.000316 µM): 113%; viability, T/C (second compound 0.316 µM, first compound 0.001 µM): 109%; viability, T/C (second compound 0.316 µM, first compound 0.00316 µM): 105%; viability, T/C [4]: 97.6%; viability, T/C (second compound 1 µM, first compound 0.000316 µM): 106%; viability, T/C (second compound 1 µM, first compound 0.001 µM): 97.3%; viability, T/C (second compound 1 µM, first compound 0.00316 µM): 94.9%; viability, T/C [7]: 94.8%; viability, T/C (second compound 3.16 µM, first compound 0.000316 µM): 74.3%; viability, T/C (second compound 3.16 µM, first compound 0.001 µM): 64.2%; viability, T/C (second compound 3.16 µM, first compound 0.00316 µM): 65.1%; viability, T/C [10]: 65.3%; viability, T/C (second compound 10 µM, first compound 0.000316 µM): 18.7%; viability, T/C (second compound 10 µM, first compound 0.001 µM): 20.8%; viability, T/C (second compound 10 µM, first compound 0.00316 µM): 20.6%; viability, T/C [13]: 21.9%
CC1COCCN1c1cc(-c2ccnn2C)c2ccnc(-c3ccn[nH]3)c2n1 (stereo not given) + C=CC(=O)N1CCN(c2nc(=O)n(-c3c(C)ccnc3C(C)C)c3nc(-c4c(O)cccc4F)c(F)cc23)C(C)C1	> 8.00	> 8.00	> 8.00	> 8.00	> 8.00	19.9	15	20.1	13.5	16.8	12.9	12	12.4	12.7	14.7	13.6	16.1	18.3	14.6	17.5	viability, T/C [1]: 41.9%; viability, T/C [4]: 32.8%; viability, T/C [21]: 20%; viability, T/C [7]: 30.3%; viability, T/C [22]: 15.5%; viability, T/C [23]: 18.7%; viability, T/C [24]: 23.2%; viability, T/C [10]: 17.1%; viability, T/C [25]: 16.8%; viability, T/C [26]: 21.8%; viability, T/C [27]: 24.1%; viability, T/C [13]: 12.1%; viability, T/C [28]: 19.1%; viability, T/C [29]: 21.3%; viability, T/C [30]: 24.8%
COc1cc(Nc2ncc3c(n2)-c2ccc(Cl)cc2C(c2c(F)cccc2OC)=NC3)ccc1C(=O)O + C=CC(=O)N1CCN(c2nc(OCC3CCCN3C)nc3c2CCN(c2cccc4cccc(C)c24)C3)CC1CC#N	> 7.50	> 7.50	> 7.50	> 7.50		24.8	25.7	18.8	17.9	11.2	10.8	0.22	0.2			26.8	27.2	23.5	23.5	23.3	pIC50 (second compound 0.0316 µM): > 7.50; viability, T/C (second compound 0.0316 µM, first compound 0.0316 µM): 28.8%; viability, T/C (second compound 0.0316 µM, first compound 0.1 µM): 25.6%; viability, T/C (second compound 0.0316 µM, first compound 0.316 µM): 28.7%; viability, T/C (second compound 0.0316 µM, first compound 1 µM): 29.4%; viability, T/C (second compound 0.0316 µM, first compound 3.16 µM): 26.1%; viability, T/C (second compound 0.0316 µM, first compound 10 µM): 17.1%; viability, T/C [31]: 15.9%; viability, T/C [21]: 21.1%; viability, T/C [32]: 14.4%; viability, T/C [22]: 14.9%; viability, T/C [23]: 15.4%; viability, T/C [24]: 14.2%; viability, T/C [33]: 10.3%; viability, T/C [25]: 0.13%; viability, T/C [26]: 1.99%; viability, T/C [27]: 0.44%; viability, T/C [34]: 0.41%
O=C(c1cc(Cc2n[nH]c(=O)c3ccccc23)ccc1F)N1CCN(C(=O)C2CC2)CC1 + CC1OCC2(CCN(c3cnc(Sc4ccnc(N)c4Cl)c(N)n3)CC2)C1N	5.14	5.26	5.06	> 7.50	> 7.50	90.5	82.3	76.5	63.6	138	120	48	41.3	50.8	44.6	81.2	90.5	74.3	63.8	78	viability, T/C [31]: 40.5%; viability, T/C [21]: 62.5%; viability, T/C [32]: 34.6%; viability, T/C [22]: 113%; viability, T/C [23]: 120%; viability, T/C [24]: 83.9%; viability, T/C [33]: 45.1%; viability, T/C [25]: 50.7%; viability, T/C [26]: 45.4%; viability, T/C [27]: 39.7%; viability, T/C [34]: 30.6%; outcome [28]: inactive; viability, T/C [29]: 38.6%; viability, T/C [30]: 34.4%; viability, T/C (second compound 10 µM, first compound 10 µM): 27.6%
